Experimental data taken from PMC9645344, “Serotonin-releasing agents with reduced off-target effects” (Molecular Psychiatry, 2022).
pIC50: −log10 of the molar value. Structures can show the parent of a compound that is named as a salt.

Tests used:
[1] = test system: extracellular 5-HT in the NAc; experiment: Fiber photometry with GRAB5-HT sensor in the NAc of freely moving mice; format: in vivo
Procedure: (§1) All in vivo experiments were performed in adult mice (>6 weeks old). For the photometry and microdialysis experiments, which were carried out in Florida, male C57BL/6J mice from The Jackson Laboratory (Bar Harbor, ME, USA) were group-housed in polycarbonate cages (GM500, Tecniplast, Buguggiate, Italy) with lights on from 7 a.m. to 7 p.m. Food and water were provided ad libitum. Photometry and microdialysis experiments were performed in accordance with a protocol approved by the Institutional Animal Care and Use Committee at Florida Atlantic University. For the behavioral experiments, which were carried out in Vienna, C57BL/6N mice from Charles River (Sulzfeld, Germany) were group-housed in polycarbonate cages with lights on from 7 a.m. to 7 p.m. Food and water were provided ad libitum. Behavioral experiments were performed in accordance with a protocol approved by the Austrian national ethical committee on animal care and use (Bundesministerium für Wissenschaft und Forschung: BMWFW-66.009/0016-WF/V/3b/2015). All animal procedures were conducted in agreement with the ARRIVE guidelines and the U.K. Animal (Scientific Procedures) Act, 1986, and associated guidelines, EU Directive 2010/63/EU for animal experiments. Mice were given at least 1 week to acclimate before being used in any experiments.
Mice were anesthetized with isoflurane (5% induction, 2% maintenance) and placed into a stereotaxic frame (Kopf Instruments, Tujunga, CA, USA) oriented in the flat skull position. Ophthalmic ointment was applied to prevent drying of the eyes. Ketoprofen (10 mg kg^−1) was administered subcutaneously (s.c.), whereas bupivacaine and lidocaine were administered locally (s.c.; 100 µl of sterile saline containing 0.05% bupivacaine and 0.2% lidocaine) to the surgical site atop the head. A midline incision was made through the skin on the dorsal surface of the head to expose the skull. Fascia was removed, coordinates for the NAc were determined relative to bregma: anterior/posterior = 1.54 mm; medial/lateral = 0.7 mm; dorsal/ventral = −4.1 mm. A 1 mm burr hole was drilled through the skull. […] For the mice used for fiber photometry, 4*10^12 genome copies of AAV9-hSyn-5-HT2h or 10^10 genome copies of AAV-hSyn-DA2m were delivered into the NAc at an infusion rate of 100 nl min^−1 (total volume of 1 µl) using a 34-gauge needle attached to a 10 µl Nanofil microsyringe (Hamilton, Reno, NV, USA), as previously described. Following injection of the virus, an optical fiber was lowered through the burr hole and secured with glass ionomer cement. Three 1.6 mm screws (00-96X1/16 39052, Plastics One Inc., Roanoke, VA, USA) were affixed to the skull to support a cement stage that was created to secure the implanted guide cannulae or optical fiber. Mice were singly housed following surgery and allowed 6 days of recovery for the microdialysis experiments or 21 days for the photometry experiments. Food and water were available ad libitum.
To monitor light emitted from the G-protein coupled receptor-activation-based 5-HT (GRAB5-HT) and DA (GRABDA) sensors, fiber photometry was performed as described. Briefly, a light emitting diode (465 nm) (CLED_465, Doric Lenses, Quebec, QC, Canada), reflected through a dichroic mirror, was coupled to an optical fiber (200 µm core/225 cladding diameter; Thorlabs, Newton, NJ, USA) that was glued to a metal ferrule (Doric Lenses, Quebec, QC, Canada) and implanted into the NAc as described above. Emitted, band-pass filtered light (500–550 nm, FMC6, Doric Lenses, Quebec,QC, Canada) was detected with a photodetector (Newport Femtowatt silicone PIN; New Focus, San Jose, CA, USA). Data were recorded using a RZ5P lock-in amplifier (Tucker-Davis Technologies, Alachua, FL, USA) controlled with Synapse software. Sinusoidal excitation was delivered at 210 Hz by an LED driver Doric Lenses, LEDD_4) at low power mode. A demodulated signal was low-pass filtered at 6 Hz and digitized at 1017 Hz. […]

[2] = target: T1, human DAT (Homo sapiens, UniProt Q01959); experiment: DAT uptake inhibition assay in HEK293 cells ([3H]MPP+); format: cell-based; conditions: for DAT/SERT ratio: (1/DAT IC50)/(1/SERT IC50), higher values indicate higher DAT-selectivity
T1 construct: expressed in transfected cells
T1 sequence (Q01959 whole entry): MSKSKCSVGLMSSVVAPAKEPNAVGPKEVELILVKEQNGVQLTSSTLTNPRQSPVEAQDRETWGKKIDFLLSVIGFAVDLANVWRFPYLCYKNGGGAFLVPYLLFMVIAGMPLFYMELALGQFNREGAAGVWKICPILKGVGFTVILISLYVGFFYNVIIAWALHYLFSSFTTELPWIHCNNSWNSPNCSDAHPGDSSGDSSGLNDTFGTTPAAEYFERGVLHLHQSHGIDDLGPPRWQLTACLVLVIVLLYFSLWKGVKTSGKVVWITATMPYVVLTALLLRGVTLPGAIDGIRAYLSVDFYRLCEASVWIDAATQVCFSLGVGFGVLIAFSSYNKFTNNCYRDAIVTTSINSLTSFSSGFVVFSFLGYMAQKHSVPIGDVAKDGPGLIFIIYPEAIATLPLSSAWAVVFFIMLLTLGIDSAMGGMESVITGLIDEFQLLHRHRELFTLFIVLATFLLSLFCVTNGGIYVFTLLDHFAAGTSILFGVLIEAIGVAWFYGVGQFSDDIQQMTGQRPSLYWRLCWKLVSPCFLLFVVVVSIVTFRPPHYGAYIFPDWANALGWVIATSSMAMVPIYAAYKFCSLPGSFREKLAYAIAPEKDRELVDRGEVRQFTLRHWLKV
Procedure: (§2) Human embryonic kidney 293 (HEK293) cells stably expressing the human isoforms of either DAT or SERT were maintained in Dulbecco’s Modified Eagle Medium (DMEM), supplemented with 10% fetal calf serum at a subconfluent state in humidified atmosphere (5% CO2, 37 °C).
(§3) Uptake inhibition assays were performed as described earlier. Briefly, HEK293 cells stably expressing human SERT or DAT were seeded onto poly- D-lysine (PDL) coated 96-well plates (40,000 cells well^−1) the day before an experiment. Prior to the uptake inhibition assay, DMEM was replaced with Krebs-HEPES buffer (KHB, 25 mM HEPES, 120 mM NaCl, 5 mM KCl, 1.2 mM CaCl2, 1.2 mM MgSO4, and 5 mM D-glucose, pH 7.3) and the cells were preincubated with test drugs for 5 min at room temperature. Uptake assays were initiated by adding 20 nM [^3H]MPP^+ to DAT cells or 100 nM [^3H]5-HT to SERT cells. After 180 s (DAT) or 60 s (SERT), the tritiated substrate was removed by aspiration. Cells were washed once with ice-cold KHB, then lysed in 1% sodium dodecyl sulfate (SDS) and subjected to liquid scintillation counting to quantify tritium accumulated in each sample. Non-specific uptake was determined in the presence of mazindol (1 µM) for DAT or paroxetine (1 µM) for SERT and subtracted throughout.

[3] = target: T2, human SERT (Homo sapiens, UniProt P31645); experiment: [3H]5-HT release assay in HEK293 cells (superfusion); format: cell-based; conditions: 10 µM, SERT-expressing HEK293 cells
T2 construct: expressed in transfected cells
T2 sequence (P31645 whole entry, the tested form may be a part): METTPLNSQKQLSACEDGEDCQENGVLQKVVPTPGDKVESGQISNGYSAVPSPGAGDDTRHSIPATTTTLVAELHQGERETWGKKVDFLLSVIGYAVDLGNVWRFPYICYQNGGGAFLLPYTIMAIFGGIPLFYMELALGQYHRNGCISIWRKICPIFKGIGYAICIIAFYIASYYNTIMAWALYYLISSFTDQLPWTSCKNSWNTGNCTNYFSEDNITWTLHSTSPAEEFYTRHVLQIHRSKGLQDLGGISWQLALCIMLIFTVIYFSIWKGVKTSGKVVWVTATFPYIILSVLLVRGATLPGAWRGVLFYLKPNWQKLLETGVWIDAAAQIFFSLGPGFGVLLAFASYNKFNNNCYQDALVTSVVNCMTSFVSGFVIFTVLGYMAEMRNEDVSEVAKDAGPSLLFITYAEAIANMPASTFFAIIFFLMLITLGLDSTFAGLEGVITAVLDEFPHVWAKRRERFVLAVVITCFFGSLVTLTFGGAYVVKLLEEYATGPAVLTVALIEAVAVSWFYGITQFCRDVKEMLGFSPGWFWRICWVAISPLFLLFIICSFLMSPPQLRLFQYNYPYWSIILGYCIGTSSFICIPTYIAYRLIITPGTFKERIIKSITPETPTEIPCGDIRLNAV
Procedure: HEK293 cells stably expressing SERT were seeded onto PDL-coated glass coverslips (5 mm diameter) that were placed into 96-well plates at a density of 40,000 cells per well the day before the experiment. Cells were preloaded with [^3H]5-HT (0.4 µM, 20 min at 37 °C). Subsequently, the cells were transferred into small chambers with a total volume of 200 µl and superfused with KHB at a flow rate of 0.7 ml per min for 40 min to establish a stable baseline before the collection of 2-min fractions was initiated. For each experiment, three basal fractions were collected before the cells were exposed to various concentrations (given in the figure legends) of the test drugs for five fractions. Subsequently, the cells were superfused with 1% SDS for three final fractions that served to determine the total amount of radioactivity present within the cells at the end of each experimental run. The amount of tritium within each fraction was determined by liquid scintillation counting, and release was expressed as percentage of radioactivity released in relation to the total radioactivity present at the beginning of that fraction. Observations from superfusion experiments were excluded in case of premature exposure to SDS.

[4] = target: T2, human SERT; experiment: SERT uptake inhibition assay in HEK293 cells ([3H]5-HT); format: cell-based
Procedure: as §2, §3

[5] = test system: C57BL/6N mice; experiment: Open-field test; format: in vivo; conditions: for horizontal locomotor activity (total distance traveled) in the open field test: 1 h
Procedure: as §1
(§4) For behavioral assays, animals were assigned to treatment groups and injected with test drugs by an unblinded observer.
Mice were placed into an open field arena (27.3 × 27.3 × 27.3 cm) surrounded by infrared beams to track movements. The total distance traveled over 1 h was recorded using Activity Monitor (Med Associates Inc., St. Albans, VT, USA) and interpreted as a measure of the psychostimulant effects. Animal sample size was confirmed using a post hoc analysis of the achieved power using G*Power3.1 [29]. Using a significance level (α) of 0.05 and an effect size f = 1.92 and a sample size of 7.5 animals (5–10)/group we achieved the commonly accepted statistical power (1−β) of 0.8.

[6] = test system: VMATs; experiment: VMAT uptake inhibition assay in PC12 cells; format: cell-based; conditions: all at 30 µM, relative to inhibition by 30 µM reserpine
Procedure: VMAT uptake inhibition assays were conducted as previously described, with some modifications. In brief, […] PC12 cells per well were seeded in 24-well plates the day before experimentation. The cells were pretreated with 100 nM nisoxetine and mazindol to inhibit non-specific binding. PC12 cells were then preincubated with 200 µM digitonin to permeabilize membranes and were kept at room temperature on a plate shaker at low velocity for 30 min. Cells were treated with test drugs and shaken for another 10 min. Tritiated substrate (0.05 µM [^3H]5-HT) was added, and the cells incubated on the plate shaker for 30 min. To terminate uptake, cells were transferred into 1.5 ml Eppendorf tubes, centrifuged at 5000 rpm for 5 min. The supernatant was aspirated, cells were washed with cold KHB, recentrifuged and lysed with 200 µl SDS. The solutions were transferred into vials containing 2 ml scintillation cocktail and radioactivity was determined via beta-scintillation counting (Perkin Elmer, Waltham, MA, USA). For analysis, inhibitory potency of test drugs was normalized to uptake inhibition caused by the potent VMAT inhibitor reserpine.

[7] = test system: C57BL/6N mice; experiment: Forced-swim test (FST); format: in vivo; conditions: for immobility time in the FST versus vehicle: mice
Procedure: as §1, §4
The FST was performed as previously described. In brief, mice were placed for 6 min in a beaker (diameter: 19 cm, height: 23 cm), halfway filled with water (22–23 °C), and the immobility time was quantified using the software Videotrack (Viewpoint, Champagne au Mont d’Or, France). Immobility was defined as the absence of any movement, except for those required to keep the head above the water. The time spent immobile during the final 4 min of the test was used as a measure of behavioral despair. Animal sample size was confirmed using a post hoc analysis of the achieved power using G*Power3.1 [29]. Using a significance level (α) of 0.05 and an effect size f = 2.5 and a sample size of 6 animals/group we achieved the commonly accepted statistical power (1−β) of 0.8.

[8] = test system: rat brain synaptosomes; design: method as in PMID 26738428; conditions: cited from earlier work
[9] = test system: VMAT2; design: method as in PMID 25771452; conditions: racemic; cited from earlier work
[10] = indicated doses (1, 5 and 10 mg kg-1) intraperitoneal

| Structure (SMILES) | extracellular 5-HT in the NAc (GRAB5-HT fluorescence) ([1]; 10 mg kg-1 intraperitoneal) | pIC50 [2] | DAT/SERT ratio [2] | effect on release of preloaded [3H]5-HT [3] | pIC50 [4] | immobility time in the FST versus vehicle ([7]; 5 mg kg-1 intraperitoneal) | immobility time in the FST versus vehicle ([7]; 10 mg kg-1 intraperitoneal) | also measured |
| --- | --- | --- | --- | --- | --- | --- | --- | --- |
| CCN[C@@H](C)Cc1cccc(C(F)(F)F)c1 [D-FEN, d-fenfluramine, reference compound] | increased 5-HT when compared to saline | – | – | – | – | – | – | GRAB5-HT basal fluorescence in the NAc ([1]; 3 and 10 mg kg-1 intraperitoneal): increased the basal fluorescence in a dose-dependent manner; relative GRAB5-HT fluorescence at peak versus saline ([1]; t = 700-900 s post injection, drug alone, D-FEN 10, S-4-MC 5, S-4-TFMMC 10 mg kg-1 intraperitoneal): Significant effects |
| CN[C@@H](C)C(=O)c1ccc(C)cc1 [S-4-MMC, 4-methyl-N-methylcathinone] | – | 4.99 | 1.06 | robustly increased | 4.96 | significantly reduced immobility time versus vehicle | significantly reduced immobility time versus vehicle | vertical counts in the open field test [5, 10]: affected vertical counts; horizontal locomotor activity (total distance traveled) in the open field test [5, 10]: did not differ from vehicle; inhibition of VMAT-mediated transport compared to MDMA [6]: no difference; time spent immobile in the FST, male and female mice ([7]; 5 mg kg-1 intraperitoneal, male and female mice): significantly reduced the time spent immobile regardless of sex |
| Cc1ccc(C(=O)[C@@H](C)N)cc1 [R-4-MC, 4-methylcathinone] | – | 5.02 | 19.3 | did not alter basal release of 5-HT | 3.73 | had no effect | had no effect | extracellular 5-HT in the NAc (GRAB5-HT fluorescence) ([1]; 5 mg kg-1 intraperitoneal): no effect on 5-HT was observed; 5-HT release efficacy in rat brain synaptosomes [8]: fully efficacious 5-HT releaser; immobility time in the FST versus vehicle ([7]; 1 mg kg-1 intraperitoneal): had no effect |
| CN[C@H](C)C(=O)c1ccc(C)cc1 [R-4-MMC, 4-methyl-N-methylcathinone] | – | 4.90 | 6.2 | did not alter basal release of 5-HT | 4.11 | – | significantly reduced immobility time | horizontal locomotor activity (total distance traveled) in the open field test ([5]; 10 mg kg-1 intraperitoneal): significantly affected horizontal locomotor activity |
| CN[C@@H](C)C(=O)c1ccccc1 [S-MC, N-methylcathinone] | – | 5.04 | 43.2 | little effect | 3.41 | – | – | – |
| CNC(C)C(=O)c1ccc(C)cc1 (stereo not shown) [4-MMC, 4-methyl-N-methylcathinone] | – | – | – | – | – | – | – | potency to inhibit VMAT2-mediated uptake, lower than that of MDMA [9]: 10 fold |
| CN[C@H](C)C(=O)c1ccccc1 [R-MC, N-methylcathinone] | – | 4.97 | 90.7 | did not alter basal release of 5-HT | 3.02 | – | – | – |
| CNCCC(Oc1ccc(C(F)(F)F)cc1)c1ccccc1 (stereo not shown) [fluoxetine, Fluoxetine hydrochloride, reference compound] | without effect | – | – | – | – | – | – | – |
| CN[C@H](C)C(=O)c1ccc(C(F)(F)F)cc1 [R-4-TFMMC, 4-trifluoromethyl-N-methylcathinone] | no effect on 5-HT was observed | 3.82 | 0.15 | did not alter basal release of 5-HT | 4.65 | had no effect | had no effect | immobility time in the FST versus vehicle ([7]; 1 mg kg-1 intraperitoneal): had no effect |
